# Where “and” joins values, the source holds several entries; their conditions need not be identical. Equal values may be shown once.
# How the values were obtained:
# Type in all cases: cell-based
# HBL-100 = assay: calcium mobilization (FLIPR, Fluo-3) in HBL-100; settings: for calcium mobilization, Percent of Control: HBL-100; for effect on responses to bradykinin in HBL-100 cells: antagonist at 10 uM
# Description: (§1) The above panel of 10 cell lines was plated in 96-well black, clear-bottomed tissue culture-treated plates (Molecular Devices, Sunnyvale, Calif. with the number of cells per well indicated in Table 1. Cells were maintained overnight at 37° C., 5%CO2 in a humidified incubator. Media was removed and the cells were then incubated in Hanks balanced salt solution (Invitrogen, Carlsbad Calif.)/10 mM HEPES pH 7.4 containing 0.04% Pluronic Acid (Molecular Probes, Eugene Oreg.) and 4 uM Fluor-3AM (Molecular Probes, Eugene Oreg.) for one hour at 37° C.
# (§2) Antagonists were added to the indicated concentration and the cells incubated at room temperature for 20 minutes. After 10 seconds of baseline read collection, agonists were added on a FLIPR instrument (Molecular Devices, Sunnyvale, Calif.) and data were collected for a total of 3.5 minutes. The fluorescence emission was normalized to initial intensity and the sum of the signal over the entire time period was exported and used for determining percent of control responses using the following formula: Percent of Control=(Sample-unstimulated cells)/(ionomycin treated cells-unstimulated cells). […] Calcium mobilization was measured as described above. […]
# NCI-H460 = assay: calcium mobilization (FLIPR, Fluo-3) in NCI-H460
# Description: as §1, §2
# SaOS-2 = assay: calcium mobilization (FLIPR, Fluo-3) in SaOS-2; settings: for calcium mobilization, Percent of Control: SaOS-2; for effect on responses to bradykinin in SaOS-2 cells: antagonist at 10 uM
# Description: as §1, §2
# Jurkat = assay: calcium mobilization (FLIPR, Fluo-3) in Jurkat
# Description: as §1, §2
# T-47D = assay: calcium mobilization (FLIPR, Fluo-3) in T-47D; settings: for calcium mobilization, Percent of Control: T-47D; for effect on the response to ionomycin in T-47D cells: antagonist at 10 uM, cells do not express the H1 receptor
# Description: as §1
# (§3) Antagonists were added to the indicated concentration and the cells incubated at room temperature for 20 minutes. After 10 seconds of baseline read collection, agonists were added on a FLIPR instrument (Molecular Devices, Sunnyvale, Calif.) and data were collected for a total of 3.5 minutes. The fluorescence emission was normalized to initial intensity and the sum of the signal over the entire time period was exported and used for determining percent of control responses using the following formula: Percent of Control=(Sample-unstimulated cells)/(ionomycin treated cells-unstimulated cells). […] Calcium mobilization was measured as described above.
# (§4) Expression of the target H1 receptor was measured by RT-PCR of mRNA samples from each cell line, as follows.
# PC-3 = assay: calcium mobilization (FLIPR, Fluo-3) in PC-3
# Description: as §1, §2
# COLO320 = assay: calcium mobilization (FLIPR, Fluo-3) in COLO320
# Description: as §1, §3, §4
# PANC-1 = assay: calcium mobilization (FLIPR, Fluo-3) in PANC-1
# Description: as §1, §2
# SK-Hep-1 = assay: calcium mobilization (FLIPR, Fluo-3) in SK-Hep-1; settings: agonist alone (buffer), 10 uM, 100 = 10 uM ionomycin
# Description: as §1, §3
# panel of 10 cell lines = assay: calcium mobilization profile across the panel of 10 cell lines; settings: for effect on calcium responses to histamine: histamine-induced calcium mobilization, panel of 10 cell lines, antagonist 1 or 10 uM
# Description: as §1, §3, §4
# NTera-2 = assay: calcium mobilization (FLIPR, Fluo-3) in NTera-2; settings: for calcium mobilization, Percent of Control: NTera-2; for effect on the response to ionomycin in NTera-2 cells: antagonist at 10 uM, cells do not express the H1 receptor
# Description: as §1, §2
# [1] = agonist alone (buffer), 10 uM, 100 = 10 uM ionomycin
# [2] = response to 1 uM bradykinin after antagonist 10 uM
# [3] = response to 10 uM histamine after antagonist 10 uM, 20 min
# [4] = response to 10 uM ionomycin after antagonist 10 uM
smiles,measurement,setting,value
"CNCCc1cnc[nH]1 [N-a-his, N-alphamethyl histamine]","calcium mobilization, Percent of Control",HBL-100; [1],16% of Control
same,"calcium mobilization, Percent of Control",NCI-H460; [1],30% of Control
same,"calcium mobilization, Percent of Control",SaOS-2; [1],11% of Control
same,"calcium mobilization, Percent of Control",Jurkat; [1],2% of Control
same,"calcium mobilization, Percent of Control",T-47D; [1],0% of Control
same,"calcium mobilization, Percent of Control",PC-3; [1],1% of Control
same,"calcium mobilization, Percent of Control",COLO320; [1],1% of Control
same,"calcium mobilization, Percent of Control",PANC-1; [1],22% of Control
same,"calcium mobilization, Percent of Control",SK-Hep-1,12% of Control
same,activity in cells that do not express the H1 receptor target,"panel of 10 cell lines; agonist example, 10 uM",Neither Compound 1 nor histamine were active
same,"calcium mobilization, Percent of Control",NTera-2; [1],2% of Control
"CN(C)CCC(c1ccc(Cl)cc1)c1ccccn1 (stereo not shown) [Compound C1PhAm, chlorpheniramine]","calcium mobilization, Percent of Control",HBL-100; [2],11% of Control
same,"calcium mobilization, Percent of Control",HBL-100; [3],0% of Control
same,"calcium mobilization, Percent of Control",HBL-100; [4],87% of Control
same,effect on responses to bradykinin in HBL-100 cells,HBL-100,does not
same,"calcium mobilization, Percent of Control",NCI-H460; [4],73% of Control and 96% of Control
same,"calcium mobilization, Percent of Control",SaOS-2; [2],29% of Control and 23% of Control
same,"calcium mobilization, Percent of Control",SaOS-2; [4],96% of Control and 112% of Control
same,effect on responses to bradykinin in SaOS-2 cells,SaOS-2,does not
same,"calcium mobilization, Percent of Control",Jurkat; [2],12% of Control and 10% of Control
same,"calcium mobilization, Percent of Control",Jurkat; [3],8% of Control and 5% of Control
same,"calcium mobilization, Percent of Control",Jurkat; [4],70% of Control and 123% of Control
same,"calcium mobilization, Percent of Control",T-47D; [4],102% of Control
same,effect on the response to ionomycin in T-47D cells,T-47D,does not affect the ionomycin response
same,"calcium mobilization, Percent of Control",PC-3; [2],0% of Control
same,"calcium mobilization, Percent of Control",PC-3; [3],0% of Control
same,"calcium mobilization, Percent of Control",PC-3; [4],104% of Control
same,"calcium mobilization, Percent of Control",COLO320; [2],0% of Control
same,"calcium mobilization, Percent of Control",COLO320; [4],98% of Control and 95% of Control
same,"calcium mobilization, Percent of Control",PANC-1; [4],101% of Control and 104% of Control
same,effect on calcium responses to bradykinin,"panel of 10 cell lines; bradykinin-induced, antagonist at 10 uM",did not inhibit bradykinin responses
same,effect on calcium responses to histamine,panel of 10 cell lines,had similar effects to Compound 1
same,"calcium mobilization, Percent of Control",NTera-2; [3],0% of Control
same,"calcium mobilization, Percent of Control",NTera-2; [4],99% of Control and 119% of Control
same,effect on the response to ionomycin in NTera-2 cells,NTera-2,does not affect the ionomycin response
NCCc1c[nH]cn1 [histamine],"calcium mobilization, Percent of Control",HBL-100; [1],18% of Control and 27% of Control
same,"calcium mobilization, Percent of Control",NCI-H460; [1],32% of Control and 24% of Control
same,"calcium mobilization, Percent of Control",SaOS-2; [1],13% of Control and 18% of Control
same,"calcium mobilization, Percent of Control",PC-3; [1],1% of Control
same,"calcium mobilization, Percent of Control",PANC-1; [1],26% of Control and 30% of Control
same,"calcium mobilization, Percent of Control",SK-Hep-1,19% of Control
same,activity in cells that do not express the H1 receptor target,"panel of 10 cell lines; agonist example, 10 uM",Neither Compound 1 nor histamine were active
same,"calcium mobilization, Percent of Control",NTera-2; [1],0% of Control
"C[C@@H](N)Cc1c[nH]cn1 [R-a-his, R-alphamethyl histamine]","calcium mobilization, Percent of Control",HBL-100; [1],−1% of Control
same,"calcium mobilization, Percent of Control",NCI-H460; [1],0% of Control
same,"calcium mobilization, Percent of Control",SaOS-2; [1],0% of Control
same,"calcium mobilization, Percent of Control",Jurkat; [1],2% of Control
same,"calcium mobilization, Percent of Control",T-47D; [1],0% of Control
same,"calcium mobilization, Percent of Control",PC-3; [1],0% of Control
same,"calcium mobilization, Percent of Control",COLO320; [1],1% of Control
same,"calcium mobilization, Percent of Control",PANC-1; [1],0% of Control
same,"calcium mobilization, Percent of Control",SK-Hep-1,−1% of Control
same,pattern of calcium responses compared with histamine and bradykinin,"panel of 10 cell lines; agonist example, 10 uM, 10 cell lines",resembles neither bradykinin nor histamine
same,"calcium mobilization, Percent of Control",NTera-2; [1],2% of Control
"COc1ccc2c(c1)CC[C@@H]1[C@@H]2CC[C@]2(C)[C@@H](NCCCCCCN3C(=O)C=CC3=O)CC[C@@H]12 [Compound U73122, U73122]",effect on responses to bradykinin in HBL-100 cells,HBL-100,inhibits the responses
same,"calcium mobilization, Percent of Control",NCI-H460; [2],1% of Control
same,"calcium mobilization, Percent of Control",NCI-H460; [3],2% of Control
same,"calcium mobilization, Percent of Control",NCI-H460; [4],102% of Control
same,"calcium mobilization, Percent of Control",SaOS-2; [2],2% of Control
same,"calcium mobilization, Percent of Control",SaOS-2; [3],0% of Control
same,"calcium mobilization, Percent of Control",SaOS-2; [4],71% of Control
same,effect on responses to bradykinin in SaOS-2 cells,SaOS-2,inhibits the responses
same,"calcium mobilization, Percent of Control",Jurkat; [2],52% of Control
same,"calcium mobilization, Percent of Control",Jurkat; [3],2% of Control
same,"calcium mobilization, Percent of Control",Jurkat; [4],52% of Control
same,"calcium mobilization, Percent of Control",T-47D; [2],1% of Control
same,"calcium mobilization, Percent of Control",T-47D; [3],1% of Control
same,"calcium mobilization, Percent of Control",T-47D; [4],88% of Control
same,effect on the response to ionomycin in T-47D cells,T-47D,partially inhibit the response to ionomycin
same,"calcium mobilization, Percent of Control",PC-3; [2],0% of Control
same,"calcium mobilization, Percent of Control",PC-3; [3],0% of Control
same,"calcium mobilization, Percent of Control",PC-3; [4],100% of Control
same,"calcium mobilization, Percent of Control",COLO320; [2],5% of Control
same,"calcium mobilization, Percent of Control",COLO320; [3],2% of Control
same,"calcium mobilization, Percent of Control",COLO320; [4],73% of Control
same,"calcium mobilization, Percent of Control",PANC-1; [2],0% of Control
same,"calcium mobilization, Percent of Control",PANC-1; [3],2% of Control
same,"calcium mobilization, Percent of Control",PANC-1; [4],89% of Control
same,specificity as inhibitor of histamine signaling through the H1 receptor,panel of 10 cell lines; compared with chlorpheniramine,less specific than chlorpheniramine
same,effect on calcium responses to histamine,panel of 10 cell lines,inhibit responses to histamine
same,"calcium mobilization, Percent of Control",NTera-2; [2],1% of Control
same,"calcium mobilization, Percent of Control",NTera-2; [3],2% of Control
same,"calcium mobilization, Percent of Control",NTera-2; [4],72% of Control
same,effect on the response to ionomycin in NTera-2 cells,NTera-2,partially inhibit the response to ionomycin
C[C@H](CCC(=O)O)C[C@H](C)C[C@H](C)C(=O)/C=C(\O)[C@H](C)C[C@H](C)C/C=C/[C@@H](C)[C@@H](O)[C@@H](C)[C@@H](O)C[C@@H]1CC[C@@](C)([C@H]2CC[C@@](C)([C@@H](C)O)O2)O1 [ionomycin],"calcium mobilization, Percent of Control",HBL-100; [1],100% of Control
same,"calcium mobilization, Percent of Control",NCI-H460; [1],100% of Control
same,"calcium mobilization, Percent of Control",SaOS-2; [1],100% of Control
same,"calcium mobilization, Percent of Control",Jurkat; [1],100% of Control
same,"calcium mobilization, Percent of Control",T-47D; [1],100% of Control
same,"calcium mobilization, Percent of Control",PC-3; [1],100% of Control
same,"calcium mobilization, Percent of Control",COLO320; [1],100% of Control
same,"calcium mobilization, Percent of Control",PANC-1; [1],100% of Control
same,"calcium mobilization, Percent of Control",SK-Hep-1,100% of Control
same,"calcium mobilization, Percent of Control",NTera-2; [1],100% of Control

# Reference: patent US20030100997A1, “Matrix assays in genomically indexed cells” (priority 2001, published 2003)
